experiment: gradient 5% acetonitrile 3 min, to 50% in 2 min, to 85% in 15 min, held 3 min, 100 µL/min; conditions: column: Zorbax Extend-C18 2.1 x 50 mm; eluents: water / acetonitrile, 0.1% formic acid
Summary of the method: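 Pure standards were analyzed in mixtures of ~100 molecules using HPLC coupled to a quadrupole time-of-flight mass spectrometer, in both positive and negative ionization mode. Separation used a Zorbax Extend-C18 column (2.1 × 50 mm, 1.8 μm) at 100 μL/min, with water and acetonitrile each containing 0.1% formic acid. Dead and dwell volumes were 40 μL and 900 μL, and data were collected over 3 months. Retention time was read from computationally picked adduct peaks, each inspected manually.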

First: CCOC(=O)c1ccc(Nc2c(-c3cccc(Br)c3)nc3cnccn23)cc1
Second: COc1cccc(CNC(=O)Cn2nc3cc(-c4ccncc4)nc(C)n3c2=O)c1
The RP-LC retention time of the first is higher: 986 s for the first, 640 s for the second.

First: Cc1cccc(CNC(=O)Cc2csc3nc(-c4ccccc4)cn23)c1
Second: O=C(O)Cc1sc(NCc2ccccc2)nc1-c1ccccc1
The RP-LC retention time of the first is higher: 880 s for the first, 681 s for the second.

Going from `CCOCCCNC(=O)c1cc2n(n1)CCCN(Cc1ccc(Cl)cc1)C2=O` to `O=C(CSc1nnc2c3sc(N4CCCC4)nc3ncn12)Nc1ccc(Cl)cc1`, the RP-LC retention time rises from 797 s to 855 s.

Compared with `CCn1ccc2c(cc(C(=O)Nc3cccc(C)c3C)n2C)c1=O`, `CCn1ccc2c(cc(C(=O)Nc3ccccc3Br)n2C)c1=O` is higher in RP-LC retention time: 736 s for the first, 758 s for the second.

Going from `Cc1oc(-c2ccc(NC(=O)C3CCCC3)cc2)nc1Cn1cccn1` to `Cc1nc2ccn(Cc3cccnc3)c(=O)c2cc1C(=O)NC1CCCCC1`, the RP-LC retention time falls from 859 s to 620 s.

First: CCCNC(=O)Cn1nc2cc(-c3ccc(OC)cc3)nc(C)n2c1=O
Second: COc1cccc(NC(=O)Cn2nc3cc(C)nc(Nc4ccc(C)c(C)c4)n3c2=O)c1
The RP-LC retention time of the first is lower: 633 s for the first, 1100 s for the second.

Going from `CCCN1CCN(c2ncc3c(n2)CCN(Cc2ccc(CC)cc2)C3)CC1` to `CCN1CCN(CCNC(=O)c2sc3ncccc3c2-n2c(C)ccc2C)CC1`, the RP-LC retention time rises from 496 s to 574 s.

First: O=S(=O)(c1ccccc1Cl)N1CCC(OCc2noc(C3CCCO3)n2)CC1 (stereo not given)
Second: COc1ccc(S(=O)(=O)N2CCC(CN3CCC(C)CC3)CC2)cc1Cl
The RP-LC retention time of the first is higher: 912 s for the first, 692 s for the second.

Compared with `COc1ccc(-n2c(=O)n(C)c(=O)c3cc(C(=O)Nc4ccc5c(c4)OCO5)cnc32)cc1`, `COc1ccc(N2CC(C(=O)NCc3ccccc3OC)CC2=O)cc1` (stereo not given) is lower in RP-LC retention time: 841 s for the first, 724 s for the second.

First: Cc1ccc2nc3sc(C(=O)N4CCN(c5ccccn5)CC4)cc3cc2c1
Second: Cc1cccc2c1cnn2C(=O)CCC(=O)N1CCN(c2ccccn2)CC1
The RP-LC retention time of the first is higher: 664 s for the first, 632 s for the second.

Going from `CCc1onc(C)c1C1CCCN1C(=O)c1c(OC)cccc1OC` (stereo not given) to `COc1cc(CNC(=O)c2ccc3c(c2)NC(=O)C2CCCCN32)cc(OC)c1OC` (stereo not given), the RP-LC retention time falls from 898 s to 726 s.

First: Clc1ccc(Sc2c(-c3ccc(Br)cc3)nc3ccccn23)cc1
Second: O=S(=O)(Nc1ccc(-c2cn3ccccc3n2)cc1)c1ccccc1
The RP-LC retention time of the first is higher: 1290 s for the first, 600 s for the second.

First: CS(=O)(=O)N[C@H]1C[C@@H]2C[C@H]1CN2C(=O)c1ccccc1C(F)(F)F
Second: Cc1[nH]c(C(=O)Nc2ccccc2F)c(C)c1S(=O)(=O)N1CCCCC1
The RP-LC retention time of the first is lower: 705 s for the first, 933 s for the second.

First: CN1c2ccc(F)cc2C(=O)NC12CCN(C(=O)c1ccccc1F)CC2
Second: O=C(NCCc1ccccc1)c1ccc2c(c1)NC(=O)C1CCCCN21 (stereo not given)
The RP-LC retention time of the first is lower: 745 s for the first, 806 s for the second.

Going from `COc1cccc(NC(=O)C2CCN(c3nnc4c(Cl)cccn34)CC2)c1` to `O=C(c1ccccc1Cl)N1CCN(c2cnn3c(C4CC4)nnc3c2)CC1`, the RP-LC retention time falls from 666 s to 590 s.

First: COc1c(C)cc(S(=O)(=O)NC2CC(C)(C)NC(C)(C)C2)cc1C
Second: CCCN1C(=O)CN(S(C)(=O)=O)CC1(C)C(=O)NCc1ccc(C)cc1 (stereo not given)
The RP-LC retention time of the first is lower: 575 s for the first, 758 s for the second.

Going from `CCS(=O)(=O)Nc1ccc(C2(C(=O)N3CCCC(C)C3)CCCCC2)cc1` (stereo not given) to `CC1CCC(NC(=O)c2nnc(-c3ccc(S(=O)(=O)N4CCCCC4)cc3)o2)CC1` (stereo not given), the RP-LC retention time rises from 1010 s to 1110 s.

First: Cc1oc2c(c1C(=O)Nc1ccc(Br)cc1)C1=NCCN1C=N2
Second: Cc1ccsc1C(=O)Nc1ccc2c(c1)CCC(=O)N2C
The RP-LC retention time of the first is lower: 644 s for the first, 733 s for the second.

Going from `COCCC1(NC(=O)c2ccsc2)CCN(S(C)(=O)=O)CC1` to `CCCNC(=O)c1ccc2c(c1)CCCN2S(C)(=O)=O`, the RP-LC retention time rises from 691 s to 713 s.

Compared with `COc1ccc(CNC(=O)NCCc2nc3cccnc3n2Cc2ccccc2)cc1`, `CC(CCc1ccccc1)NC(=O)c1cc2sccc2n1Cc1ccc(Cl)cc1` (stereo not given) is higher in RP-LC retention time: 710 s for the first, 1260 s for the second.

First: CCOC(=O)N1CCN(C(=O)c2ccc(S(=O)(=O)NCc3cccs3)o2)CC1
Second: CS(=O)(=O)c1ccc(C(=O)N2CCN(c3ccccc3)CC2)cc1
The RP-LC retention time of the first is higher: 729 s for the first, 683 s for the second.

Compared with `COc1ccccc1NC(=O)N1C[C@@H](F)C[C@H]1C(=O)N1CCc2ccccc2C1`, `COc1ccc(OC)c(CNC(=O)C2c3ccccc3C(=O)N3CCc4ccccc4C23)c1` (stereo not given) is higher in RP-LC retention time: 828 s for the first, 867 s for the second.

Compared with `CN(C1CCc2nn(CC3CC3)c(=O)n2CC1)S(=O)(=O)Cc1ccccc1` (stereo not given), `CCc1ccccc1NC(=O)Cn1nc2n(c1=O)CCCC2` is lower in RP-LC retention time: 747 s for the first, 674 s for the second.

Compared with `COCc1nc(-c2ccc(OC3CN(Cc4cccs4)C3)cc2)no1`, `COc1ccc(-n2ccc(=O)c(-c3nc(-c4ccc(F)cc4)no3)n2)cc1` is higher in RP-LC retention time: 661 s for the first, 851 s for the second.

Compared with `COCCN1CC2(CCN(S(=O)(=O)c3ccc(Cl)cc3C)CC2)C1c1ccccc1` (stereo not given), `CCN1C(=O)c2cc(S(=O)(=O)NCc3ccccc3C)ccc2Oc2cccnc21` is higher in RP-LC retention time: 779 s for the first, 1020 s for the second.

First: Cc1c(C2CCN(C(=O)NCc3ccccc3)CC2)noc1N
Second: Cc1ccc(CNC(=O)Cn2nc(C(=O)N3CCCC3)c3ccccc32)o1
The RP-LC retention time of the first is lower: 639 s for the first, 755 s for the second.

Going from `Cc1ccccc1-c1noc(Cc2nnc(-c3cc(F)cc(F)c3)o2)n1` to `Cc1cc(-c2nnc(-c3ccccc3)o2)c(C)n1CC(=O)NCc1ccc(F)cc1F`, the RP-LC retention time falls from 1090 s to 934 s.

First: Cc1nc(CC(=O)Nc2nc(-c3ccc(-c4ccccc4)cc3)cs2)cs1
Second: O=C(CSc1ccncc1)Nc1ccc(OCc2nnc(-c3ccccc3)o2)cc1
The RP-LC retention time of the first is higher: 1160 s for the first, 884 s for the second.

Compared with `CCCc1nc(-c2c(C)cc(C)nc2NC(=O)c2ccc(F)cc2Cl)no1`, `CCn1cc(-c2nc(C)c(C(=O)Nc3cc(F)ccc3F)s2)c2cccnc21` is higher in RP-LC retention time: 937 s for the first, 1070 s for the second.

Going from `Cc1cc2c(F)c(Oc3ncnn4cc(OC[C@@H](C)O)c(C)c34)ccc2[nH]1` to `CCc1ccc(NC(=O)Nc2cccn3ncnc23)cc1`, the RP-LC retention time falls from 880 s to 872 s.

First: CCOc1ccc(CN2C(=O)C3(CCOCC3)CC2c2nnnn2C(C)(C)C)cc1OC (stereo not given)
Second: CCN1CCN(C(=O)C2CCCN(S(=O)(=O)c3ccc(OC)c(OC)c3)C2)CC1 (stereo not given)
The RP-LC retention time of the first is higher: 754 s for the first, 593 s for the second.

Going from `CCC1Oc2ccc(S(=O)(=O)N3CCC(C(=O)N4CCOCC4)CC3)cc2NC1=O` (stereo not given) to `COc1ccc(NC(=O)C2CCN(S(=O)(=O)c3ccc4c(c3)CCCC(=O)N4)CC2)c(OC)c1`, the RP-LC retention time rises from 691 s to 741 s.

Going from `Cc1noc(C2CN(C(=O)Nc3ccc(F)cc3)CC23CCOCC3)n1` (stereo not given) to `O=C(Nc1ccc2cn[nH]c2c1)C1(c2ccccc2)CCOCC1`, the RP-LC retention time falls from 723 s to 676 s.

Compared with `CCCC(NC(=O)c1ccccn1)C(=O)Nc1nc2ccccc2[nH]1` (stereo not given), `Cc1nc(-c2cn(C)c3ncccc23)sc1C(=O)NCc1ccccc1` is higher in RP-LC retention time: 670 s for the first, 863 s for the second.

Compared with `CNC(=O)N1CCC(CCc2nc(C3CCOCC3)no2)CC1`, `Cc1cc(N2CCOCC2)nc(N2CCN(C(=O)CCC3CCCCC3)CC2)n1` is higher in RP-LC retention time: 648 s for the first, 714 s for the second.

First: Cc1noc([C@@H]2CN(CCCc3ccccc3)C[C@H]2CO)n1
Second: Cc1cccc(CN2C[C@@H]3C(=O)N(C)C(=O)[C@@H]3C2)c1
The RP-LC retention time of the first is higher: 612 s for the first, 583 s for the second.

First: NC(=O)C1CCN(C(=O)c2cn(-c3ccc(Cl)cc3)nn2)CC1
Second: COc1ccc(NC(=O)C(C)C2CCN(C(=O)Nc3ccc(F)cc3)CC2)cc1 (stereo not given)
The RP-LC retention time of the first is lower: 660 s for the first, 799 s for the second.

Compared with `CC1=C(c2ccc(C)cc2)S(=O)(=O)N=C1N1CCCN(C(=O)NC(C)C)CC1`, `Cc1cc2nn(CC(=O)Nc3ccc(F)c(Cl)c3)c(=O)n2c(N2CCCC2)n1` is higher in RP-LC retention time: 772 s for the first, 836 s for the second.

Compared with `COc1ccc(NC(=O)Cn2cnc3nc(N4CCCC(C(=O)NC5CC5)C4)sc3c2=O)cc1` (stereo not given), `COc1ccc(OC)c(S(=O)(=O)N2CCCC(C(=O)NC3CCCCC3)C2)c1` (stereo not given) is higher in RP-LC retention time: 681 s for the first, 867 s for the second.

Going from `Cc1ccc(CC(=O)N2CCc3cc(-c4ccno4)ccc32)cc1` to `Cc1ccc(C)c(NC(=O)C2CC(=O)N(c3ccc4c(c3)CCN4C(=O)C3CC3)C2)c1` (stereo not given), the RP-LC retention time falls from 1020 s to 768 s.

Compared with `O=C(Nc1ccc(F)c(Cl)c1)N1CCc2nc(-c3ccccc3)ncc2C1`, `CCN1C(=O)c2cccnc2Sc2cc(NC(=O)c3ccc(F)c(Cl)c3)ccc21` is lower in RP-LC retention time: 1010 s for the first, 964 s for the second.

Going from `O=C(NCc1csc(-c2ccccc2)n1)C1CCCN(c2cc(-n3cccn3)ncn2)C1` (stereo not given) to `COC(=O)c1cn(CC(=O)NCc2ccc3c(c2)OCCCO3)c2ccccc12`, the RP-LC retention time rises from 813 s to 852 s.

First: CC1(C)CC(=O)C2=C(C1)Nc1ccccc1N(CC(=O)Nc1cccc(F)c1)C2c1ccco1 (stereo not given)
Second: CCn1cc(C(=O)Nc2ccc(F)cc2)c2cccnc21
The RP-LC retention time of the first is higher: 924 s for the first, 824 s for the second.

First: CCn1c(C(=O)NCCc2c[nH]c3ccccc23)cc2cc(S(=O)(=O)N(C)C)ccc21
Second: Cc1ccnc(NS(=O)(=O)c2ccc(NC(=O)CN3C(=O)CCC3=O)cc2)n1
The RP-LC retention time of the first is higher: 969 s for the first, 546 s for the second.

Going from `CCOc1ccc(S(=O)(=O)N2CCCC(C(=O)NCC3CCCO3)C2)cc1` (stereo not given) to `CC(C)CC(=O)NCC12CCCC=C1N(C)C(=O)CC2` (stereo not given), the RP-LC retention time falls from 788 s to 726 s.

Reference: the METLIN SMRT retention time set (Domingo-Almenara et al. 2019)
